In patent publication US7351732B2, “Cycloalkanedione derivatives, method for the production thereof and their pharmacological applications” (Schwarz Pharma S.L., priority 2002, dated 2008) one finds Ki data, which are given here for 7 compounds.

In general, Ki refers to a measure of affinity in units of concentration, obtained from inhibition or displacement.

Holding throughout (format): binding
The target of one assay is T1, 5-HT4 receptors (Rattus norvegicus, UniProt Q62758).
T1 construct: (d) 5-HT4 receptors, [^3H]GR 113808, rat striatum; from tissue; host or cells: rat striatum
Nature of the assay: Radioligand displacement, 5-HT4 receptors, [3H]GR 113808. The conditions noted are these: [3H]GR 113808, rat striatum; read-out: Ki ± E.E. 5-HT4. On the technique in general: Displacement assays read how much labelled ligand stays bound in the presence of the test substance.

For the next assay, the target named is T2, 5-HT3 receptors (Rattus norvegicus, UniProt P35563).
T2 construct: (c) 5-HT3 receptors, [^3H]LY 278584, rat cerebral cortex; from tissue; host or cells: rat cerebral cortex
T2 sequence (P35563 24-483): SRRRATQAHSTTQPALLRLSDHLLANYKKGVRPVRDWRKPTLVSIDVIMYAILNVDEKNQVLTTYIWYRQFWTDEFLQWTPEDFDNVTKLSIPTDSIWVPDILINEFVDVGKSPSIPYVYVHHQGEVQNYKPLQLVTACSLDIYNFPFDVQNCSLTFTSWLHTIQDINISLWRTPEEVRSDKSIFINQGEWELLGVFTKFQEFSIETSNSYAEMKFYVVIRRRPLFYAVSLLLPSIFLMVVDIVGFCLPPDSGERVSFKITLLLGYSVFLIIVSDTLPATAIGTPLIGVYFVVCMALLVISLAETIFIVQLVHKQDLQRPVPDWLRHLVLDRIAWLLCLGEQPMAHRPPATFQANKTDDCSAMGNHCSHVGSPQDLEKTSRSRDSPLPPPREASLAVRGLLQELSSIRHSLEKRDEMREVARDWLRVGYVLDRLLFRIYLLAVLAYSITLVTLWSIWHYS
The assay is described as follows: Radioligand displacement, 5-HT3 receptors, [3H]LY 278584. As to conditions: [3H]LY 278584, rat cerebral cortex; read-out: Ki ± E.E. 5-HT3.

For a further assay, the target named is α1 receptors. Nature of the assay: Radioligand displacement, α1 receptors, [3H]prazosin. The conditions noted are these: rat cerebral cortex, read-out: Ki ± E.E. α1.
Another assay addresses T3, 5-HT2A receptors (Rattus norvegicus, UniProt P14842).
T3 construct: (b) 5-HT2A receptors, [^3H]ketanserin, rat cerebral cortex; from tissue; host or cells: rat cerebral cortex
The assay is described as follows: Radioligand displacement, 5-HT2A receptors, [3H]ketanserin. The conditions noted are these: rat cerebral cortex, read-out: Ki ± E.E. 5-HT2A.

The target in a further assay is T4, 5-HT1A (Rattus norvegicus, UniProt P19327).
T4 sequence (P19327 1-422): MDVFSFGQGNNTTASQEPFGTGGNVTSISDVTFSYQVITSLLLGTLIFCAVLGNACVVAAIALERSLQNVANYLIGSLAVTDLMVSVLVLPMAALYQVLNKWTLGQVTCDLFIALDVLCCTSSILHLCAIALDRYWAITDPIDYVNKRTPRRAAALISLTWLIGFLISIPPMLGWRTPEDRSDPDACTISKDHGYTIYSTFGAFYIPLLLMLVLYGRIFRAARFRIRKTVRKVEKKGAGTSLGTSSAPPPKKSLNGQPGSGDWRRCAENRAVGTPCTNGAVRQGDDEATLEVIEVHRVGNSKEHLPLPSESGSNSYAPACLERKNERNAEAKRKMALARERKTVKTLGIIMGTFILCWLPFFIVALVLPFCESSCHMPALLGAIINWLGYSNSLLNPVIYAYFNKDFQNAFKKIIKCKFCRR
Nature of the assay: Radioligand displacement, 5-HT1A receptors, [3H]-8-OH-DPAT. Also noted: (a) 5-HT1A receptors, [^3H]-8-OH-DPAT, rat cerebral cortex; from tissue; host or cells: rat cerebral cortex. As to conditions: rat cerebral cortex, read-out: Ki ± E.E. 5-HT1A.

The next assay has as its target T5, D2 receptors (Rattus norvegicus, UniProt P61169).
T5 construct: (g) D2 receptors, [^3H]spiperone, rat striatum; from tissue; host or cells: rat striatum
The assay is described as follows: Radioligand displacement, D2 receptors, [3H]spiperone. As to conditions: rat striatum, read-out: Ki ± E.E. D2.

A further assay deals with T6, 5-HT7 receptors (Rattus norvegicus, UniProt P32305).
T6 construct: (e) 5-HT7 receptors, [^3H]-5-CT, rat hypothalamus; from tissue; host or cells: rat hypothalamus
The assay is described as follows: Radioligand displacement, 5-HT7 receptors, [3H]-5-CT. As to conditions: [3H]-5-CT, rat hypothalamus; read-out: Ki ± E.E. 5-HT7.

T5 sequence (P61169 whole entry): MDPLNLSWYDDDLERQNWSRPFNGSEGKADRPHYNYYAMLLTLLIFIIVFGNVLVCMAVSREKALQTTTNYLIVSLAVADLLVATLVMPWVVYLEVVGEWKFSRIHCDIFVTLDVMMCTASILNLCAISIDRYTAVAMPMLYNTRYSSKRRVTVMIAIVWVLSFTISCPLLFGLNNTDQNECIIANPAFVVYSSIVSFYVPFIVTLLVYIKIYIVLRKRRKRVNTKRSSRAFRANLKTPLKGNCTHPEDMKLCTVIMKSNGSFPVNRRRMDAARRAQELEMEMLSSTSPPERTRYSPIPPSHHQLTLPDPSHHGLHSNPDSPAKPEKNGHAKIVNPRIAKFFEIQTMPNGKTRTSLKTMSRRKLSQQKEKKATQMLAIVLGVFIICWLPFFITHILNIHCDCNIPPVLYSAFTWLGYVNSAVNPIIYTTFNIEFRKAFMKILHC
T1 sequence (Q62758 whole entry): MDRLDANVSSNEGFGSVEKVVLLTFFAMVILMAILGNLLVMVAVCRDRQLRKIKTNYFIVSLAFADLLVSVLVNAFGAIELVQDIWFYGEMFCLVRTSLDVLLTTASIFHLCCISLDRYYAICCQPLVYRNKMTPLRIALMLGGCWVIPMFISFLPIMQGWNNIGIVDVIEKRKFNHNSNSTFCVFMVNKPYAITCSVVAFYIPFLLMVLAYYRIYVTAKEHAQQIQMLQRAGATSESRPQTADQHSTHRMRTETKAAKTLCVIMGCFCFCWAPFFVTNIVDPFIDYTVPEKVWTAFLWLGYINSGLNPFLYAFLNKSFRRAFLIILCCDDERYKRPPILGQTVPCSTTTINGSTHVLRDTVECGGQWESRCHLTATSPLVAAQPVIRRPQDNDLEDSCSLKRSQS
T6 sequence (P32305 whole entry): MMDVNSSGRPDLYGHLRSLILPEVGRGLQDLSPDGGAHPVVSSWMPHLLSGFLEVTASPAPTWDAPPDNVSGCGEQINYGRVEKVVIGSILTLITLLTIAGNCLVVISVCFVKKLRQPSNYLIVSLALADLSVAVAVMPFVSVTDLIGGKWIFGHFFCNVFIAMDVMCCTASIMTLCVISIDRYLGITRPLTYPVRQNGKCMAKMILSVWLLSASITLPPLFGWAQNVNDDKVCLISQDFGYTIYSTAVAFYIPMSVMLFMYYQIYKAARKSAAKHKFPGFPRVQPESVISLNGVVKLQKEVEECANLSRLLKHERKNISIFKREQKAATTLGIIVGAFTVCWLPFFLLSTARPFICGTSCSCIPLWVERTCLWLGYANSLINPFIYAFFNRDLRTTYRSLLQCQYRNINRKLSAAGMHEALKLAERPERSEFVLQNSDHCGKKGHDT
T3 sequence (P14842 whole entry): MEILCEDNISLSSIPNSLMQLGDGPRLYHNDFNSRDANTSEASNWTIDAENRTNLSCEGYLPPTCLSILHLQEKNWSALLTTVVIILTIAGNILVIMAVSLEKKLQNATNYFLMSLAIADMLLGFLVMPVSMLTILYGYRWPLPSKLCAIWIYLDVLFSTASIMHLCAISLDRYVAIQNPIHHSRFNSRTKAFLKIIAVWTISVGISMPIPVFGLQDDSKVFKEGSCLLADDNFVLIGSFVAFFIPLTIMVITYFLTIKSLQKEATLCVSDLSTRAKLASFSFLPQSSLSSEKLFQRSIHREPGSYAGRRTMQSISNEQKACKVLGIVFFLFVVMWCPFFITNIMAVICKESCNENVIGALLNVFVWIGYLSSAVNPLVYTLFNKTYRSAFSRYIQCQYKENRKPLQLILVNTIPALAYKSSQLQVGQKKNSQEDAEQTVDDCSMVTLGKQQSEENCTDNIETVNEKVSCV

`O=C1CSC(=O)N1CCCCNCCc1cccc2ccccc12` [Compound 10, 3-[4-[2-(Naphth-1-yl)ethylamine]butyl]-2,4-dioxothiazolidin]: the Ki was > 1000 nM on 5-HT4 receptors; > 1000 nM at 5-HT3 receptors; > 1000 nM at α1 receptors; > 1000 nM at 5-HT2A receptors; 15 ± 1 nM at 5-HT1A; > 10000 nM on D2 receptors. On 5-HT7 receptors, the Ki was > 10000 nM.
Consider `O=C1CSC(=O)N1CCCCNCCOc1ccccc1` [Compound 13, 3-[4-[2-(Phenoxy)ethylamine]butyl]-2,4-dioxothiazolidin], for which the inhibition constant Ki on 5-HT4 receptors was > 1000 nM; at 5-HT3 receptors, > 10000 nM; at α1 receptors, 26.9 ± 4.5 nM; at 5-HT2A receptors it was > 10000 nM; on 5-HT1A, 9.8 ± 0.7 nM; on D2 receptors it was > 10000 nM. Also, the inhibition constant Ki at 5-HT7 receptors was 55 ± 0.3 nM.
Regarding `O=C1C2CCCN2C(=O)N1CCCCNCCOc1cccc2ccccc12` (stereo not shown) [Compound 14, 2-[4-[2-(Naphth-1-oxi)ethylamine]butyl]-1,3-dioxoperhydropyrrolo[1,2-c]imidazol], the inhibitory constant (Ki) is > 10000 nM at 5-HT4 receptors; > 1000 nM at 5-HT3 receptors; 30.9 ± 4.9 nM at α1 receptors; 41.5 ± 7.5 nM on 5-HT2A receptors; 2.4 ± 0.6 nM at 5-HT1A; > 1000 nM on D2 receptors. Besides, the Ki on 5-HT7 receptors amounted to 42.6 ± 4.4 nM.
`O=C1C2CCCN2C(=O)N1CCCCNCc1nc2ccccc2[nH]1` (stereo not shown) [Compound 16, 2-[4-[(Benzimidazol-2-yl)methylamine]butyl]-1,3-dioxoperhydropyrrolo[1,2-c]imidazol]: the Ki on 5-HT4 receptors was > 10000 nM; at 5-HT3 receptors it was > 1000 nM; at α1 receptors, > 1000 nM; on 5-HT2A receptors it was > 10000 nM; on 5-HT1A it was > 10000 nM; at D2 receptors, > 10000 nM. On 5-HT7 receptors, the inhibitory constant (Ki) was > 10000 nM.
Regarding `COc1ccccc1CCCNCCCCN1C(=O)C2CCCN2C1=O` (stereo not shown) [Compound 19, 2-[4-[3-(o-Methoxyphenyl)propylamine]butyl]-1,3-dioxoperhydropyrrolo[1,2-c]imidazol], the Ki on 5-HT4 receptors was > 10000 nM; at 5-HT3 receptors, > 10000 nM; at α1 receptors, > 1000 nM; at 5-HT2A receptors, > 1000 nM; at 5-HT1A, 73.9 ± 5 nM; at D2 receptors it was > 10000 nM. Besides, at 5-HT7 receptors, the inhibition constant (Ki) is > 10000 nM.
As to `COc1ccccc1CCCCNCCCCN1C(=O)C2CCCN2C1=O` (stereo not shown) [Compound 20, 2-[4-[4-(o-Methoxyphenyl)butylamine]butyl]-1,3-dioxoperhydropyrrolo[1,2-c]imidazol], the Ki was > 10000 nM on 5-HT4 receptors; > 1000 nM at 5-HT3 receptors; > 1000 nM on α1 receptors; > 10000 nM at 5-HT2A receptors; 138 ± 26.3 nM at 5-HT1A; > 10000 nM on D2 receptors. The inhibition constant Ki at 5-HT7 receptors is > 10000 nM.
Regarding `COc1ccccc1CCCNCCCN1C(=O)C2CCCN2C1=O` (stereo not shown) [Compound 21, 2-[3-[3-(o-Methoxyphenyl)propylamine]propyl]-1,3-dioxoperhydropyrrolo[1,2-c]imidazol], the inhibitory constant (Ki) on 5-HT4 receptors was > 1000 nM; at 5-HT3 receptors it was > 10000 nM; at α1 receptors it was > 1000 nM; on 5-HT2A receptors, > 10000 nM; at 5-HT1A, > 1000 nM; at D2 receptors, > 10000 nM. Moreover, the inhibitory constant (Ki) on 5-HT7 receptors is > 10000 nM.
